Measured values from patent US20220257698A1, “ANGIOTENSIN TYPE 2 (AT2) RECEPTOR AGONISTS FOR USE IN THE TREATMENT OF CANCER” (LANTHIOPEP B.V., priority 2019, published 2022).

Key:
Format in all cases: in vivo, cd1 nu/nu mice (human GBM cell line)
U87MG glioblastoma CDX [1] = assay: Subcutaneous U87MG glioblastoma CDX: tumor weight and time of tumor progression; details: for tumor weight [%]: relative to vehicle = 100
Description: Effects of KcAng(1-7) were evaluated in vivo in a subcutaneous GBM xenograft model in nude mice. Insurgence of neurologic phenomena and differences in the survival rates were evaluated. Human GBM cell lines U87MG and U251MG were used. Cell lines were grown in DMEM nutrient mixture supplemented with 10% fetal bovine serum, 1% penicillin/streptomycin, and 25 mM HEPES buffer. All cell lines were cultured at 37° C. in a humidified atmosphere consisting of 5% CO2 and 95% air. Medium was changed every 2 days and the cell morphology was evaluated under microscope daily.
Six-week-old male athymic nude mice (age 5-7 weeks) were housed with free access to food and water in a temperature-controlled room. Each group is represented by 10 xenograft cd1 nu/nu mice. The mice were injected s.c. in the right distal hind limb with one million of cultured human tumor cell lines suspended in 0.15 mL of 2:1 solution of PBS/Matrigel (Matrigel BD Biosciences). Xenografts were measured every four days with a digital caliper in two perpendicular dimensions. Tumor volume was calculated according to the following formula:
Tumor volume=(tumor width)×(tumor width)×(tumor length)÷2
At the end of experiments, mice were euthanized and tumors removed. Weight loss or other signs of distress such as hunched posture were checked during and after treatments.
Efficacy of treatment was evaluated by: (1) the size of tumors (vehicle control and treated), (2) the relative weight at the end of experiment, and (3) the indirect evaluation of angiogenesis by determining hemoglobin levels.
In vivo tumor response to treatment was evaluated using the following parameters: (i) Complete response (CR): defined as the disappearance of a measurable lesion, (ii) Partial response (PR): defined as a reduction of greater than 50% of the sum of the products of the cross-sectional diameters of the measurable lesion, (iii) Stable disease (SD): defined as a reduction of less than 50% or an increase of less than 25% in the sum of the products of the cross-sectional diameters of the measurable lesions, (iv) Tumor progression (TP): defined as an increase of greater than […] in the sum of the products of the cross-sectional diameters of the measured lesion, (v) Time to progression (TTP) defining the tumor growth delay. Tumor progression was calculated through the analysis of bioluminescence imaging (BLI) photon counts and when possible through the analyses of tumor volumes calculated by magnetic resonance imaging (MRI), (vi) Disease free survival (DFS) is the time elapsed between the time point at which no luciferase activity is detectable anymore and the death of the animal, (vii) Overall survival (OS) is the time elapsed between tumor inoculation and death of the animal. […] Luciferase transfected cells were used for bioluminescence evaluations.
Data are presented as mean and standard error of the mean (SEM) or standard deviation (SD). Statistical comparisons between control and treated groups were established by carrying out the Kruskal-Wallis test (a nonparametric one-way analysis of variance) or the Mann-Whitney test (in the case of two groups). The level of significance was corrected by multiplying the P value by the number of comparisons performed (n) according to […] correction. TP, TTP and DFS were analyzed by Kaplan-Meier curves and Gehan's generalized Wilcoxon test. All statistical analyses were undertaken using SPSS 10.0.
Mice with U87MG cell CDX were randomized at day 0. KcAng(1-7) was injected daily subcutaneously (0.2 μg/kg) starting at day 0 until the (ethical) endpoint maximally at day 42. TMZ was administered at 16 mg/kg during 5 consecutive days, that is from […]. Volumetric evaluation of the tumor was performed every 4 days and tumor weight was measured at the end of the experiment.
Synergism was determined using the methods described in Clarke et al. Breast Cancer Research and Treatment 46:255-278 (1997).
Mice with U87MG cell CDX were randomized at day 0. […]

U87MG glioblastoma CDX [2] = assay: Tumor hemoglobin level (indirect angiogenesis) in U87MG CDX; details: KcAng(1-7) 1 μg/kg/d, Losartan 20 mg/kg/d, or both
Description: Efficacy of treatment was evaluated by: […] Mice with U87MG cell CDX were randomized at day 0. KcAng(1-7) was injected subcutaneously (1 μg/kg) on a daily basis. Losartan was administered intraperitoneal at 20 mg/kg/day. […] In brief, tumors were homogenized in double-distilled water. Eighty microliters of homogenates were mixed with 1 mL of Drabkin's solution and incubated for 15 min at room temperature. After centrifugation at 400×g for 5 min, the supernatants were subjected to absorbance measurement at 540 nm. The absorption, which is proportional to hemoglobin concentration, was divided by tumor weight.

U251MG glioblastoma CDX [3] = assay: Subcutaneous U251MG glioblastoma CDX: time of tumor progression; details: KcAng(1-7) 1 μg/kg/d, Losartan 20 mg/kg/d, or both
Description: Effects of KcAng(1-7) were evaluated in vivo in a subcutaneous GBM xenograft model in nude mice. Insurgence of neurologic phenomena and differences in the survival rates were evaluated. Human GBM cell lines U87MG and U251MG were used. Cell lines were grown in DMEM nutrient mixture supplemented with 10% fetal bovine serum, 1% penicillin/streptomycin, and 25 mM HEPES buffer. All cell lines were cultured at 37° C. in a humidified atmosphere consisting of 5% CO2 and 95% air. Medium was changed every 2 days and the cell morphology was evaluated under microscope daily. Six-week-old male athymic nude mice (age 5-7 weeks) were housed with free access to food and water in a temperature-controlled room. Each group is represented by 10 xenograft cd1 nu/nu mice. […] Xenografts were measured every four days with a digital caliper in two perpendicular dimensions. Tumor volume was calculated according to the following formula: In vivo tumor response to treatment was evaluated using the following parameters: […] […] TP, TTP and DFS were analyzed by Kaplan-Meier curves and Gehan's generalized Wilcoxon test. […]

U251MG glioblastoma CDX [4] = assay: Tumor hemoglobin level (indirect angiogenesis) in U251MG CDX; details: KcAng(1-7) 1 μg/kg/d, Losartan 20 mg/kg/d, or both
Description: Efficacy of treatment was evaluated by: […] In brief, tumors were homogenized in double-distilled water. Eighty microliters of homogenates were mixed with 1 mL of Drabkin's solution and incubated for 15 min at room temperature. After centrifugation at 400×g for 5 min, the supernatants were subjected to absorbance measurement at 540 nm. The absorption, which is proportional to hemoglobin concentration, was divided by tumor weight. Effect of KcAng(1-7) and Losartan against heterotopic U251MG cell culture-based xenografts (CDX) in mice. Animals were treated either with vehicle, treated with 20 mg/kg/d Losartan, treated with 1 μ[…](1-7) or treated with a combination of KcAng(1-7) and with Losartan.

SMILES | Time of tumor progression - TTP, mean (days ± SEM) (U87MG glioblastoma CDX [1]; KcAng(1-7) 1 μg/kg/d s.c., Losartan 20 mg/kg/d i.p., or both) | Tumor weight, mean (mg ± SEM) (U87MG glioblastoma CDX [1]; KcAng(1-7) 1 μg/kg/d s.c., Losartan 20 mg/kg/day i.p., or both) | tumor weight [%] (U87MG glioblastoma CDX [1]; KcAng(1-7) 1 μg/kg/d, Losartan 20 mg/kg/d, or both) | Tumor hemoglobin level, mean (± SEM) (U87MG glioblastoma CDX [2]) | Time of tumor progression - TTP, mean (days ± SEM) (U251MG glioblastoma CDX [3]) | Tumor hemoglobin level, mean (± SEM) (U251MG glioblastoma CDX [4]) | Time of tumor progression - TTP, mean (days ± SD) (U87MG glioblastoma CDX [1]; KcAng(1-7) 0.2 μg/kg/d s.c., TMZ 16 mg/kg for 5 days, or both) | Tumor weight, mean (mg ± SD) (U87MG glioblastoma CDX [1]; end of experiment, KcAng(1-7) 0.2 μg/kg/d s.c., TMZ 16 mg/kg for 5 days, or both) | tumor weight [%] (U87MG glioblastoma CDX [1]; KcAng(1-7) 0.2 μg/kg/d, TMZ 16 mg/kg, or both)
CCCCc1nc(Cl)c(CO)n1Cc1ccc(-c2ccccc2-c2nn[nH]n2)cc1 [Losartan, reference compound] | 13.0 ± 0.6 days | 830 ± 57 mg | 79.8% | 15.2 ± 1.0 mg hemoglobin/g of tissue | 10.6 ± 0.6 days | 32.1 ± 3.1 mg Hb/g of tissue | – | – | –
Cn1nnc2c(C(N)=O)ncn2c1=O [Temozolomide, temozolomide, reference compound] | – | – | – | – | – | – | 17.00 ± 0.54 days | 445 ± 28 mg | 42.8%
